The subject of the assay is Achromobacter xylosoxidans SadB (SadB), SEQ ID NO: 26. As to the kind of experiment: isobutyraldehyde reduction kinetics (A340, initial rates). In kind it is biochemical. The note with it: read-out: KM (NADH); cofactor. An excerpt:
This example describes preparation of ADH-gene constructs for over-expression/purification and measurement of enzyme activities using a time-course assay. Horse-liver ADH (HLADH; A-6128) was purchased from Sigma. Achromobacter xylosoxidans SadB (SadB), Saccharomyces cerevisiae ADH6 (ScADH6) and ADH7 (ScADH7), Entamoeba histolytica ADH1 (EhADH1), Bos Taurus Aldehyde Reductase (BtARD), Beijerinckia indica subsp. Indica ATCC 9039 (BiADH), Clostridium beijerinckii ADH (CbADH), Rana perezi ADH8 (RpADH8), Rattus norvegicus ADH1 (RnADH1), Thermus sp. ATN1 ADH (TADH), Phenylobacterium zucineum HLK1 ADH (PzADH), Methylocella silvestris BL2 ADH (MsADH), Acinetobacter baumannii AYE ADH (AbADH), Geobacillus sp. WCH70 ADH (GbADH), Vanderwaltozyma polyspora DSM 70294 ADH (VpADH), Mucor circinelloides ADH (McADH), and Rhodococcus erythropolis PR4ADH (ReADH) were the candidates for which subclones were prepared for protein expression and purification.
As a routine practice, the crude extracts and purified proteins were assayed for butanol oxidation activity, in order to ensure that the recombinant proteins were active throughout the purification process. […] Alcohol oxidation activities were carried out in 50 mM sodium phosphate buffer at pH 8.8 and aldehyde reduction reactions were assayed in 190 mM potassium phosphate buffer at pH 7.0. Depending on the nature of reaction being carried out, the enzyme and cofactor stocks were diluted in the reaction buffers at the respective pHs. Either buffer or cell extract prepared from the proprietary E. coli strain (with no ADH plasmid) was used as the negative control for assays with purified protein and cell-free extracts, respectively.
Kinetic constants of the ADH enzymes were calculated and compared to identify those candidate ADH enzymes with the most desirable properties for the conversion of isobutyraldehyde to isobutanol in the last step of the engineered pathway for isobutanol production. The assays for determining the kinetic constants were carried out using initial rates from the assays described above. […] The concentration of a given enzyme was such that it was conducive for the measurement of initial velocities over a 1-min time course. For each enzyme, Michaelis-Menten plots were generated with a broad range of substrate concentrations. Rough estimates of KM were obtained, based on which the assays were redesigned so as to use substrate concentrations in the range 0.5 to 10 times the KM value, to be able to obtain the appropriate kinetic constants. […] Reactions with isobutanol substrate were performed at 30° C. in 50 mM Sodium phosphate buffer, pH 8.8, containing 7.5 mM NAD. The Enzyme kinetics module (Version 1.3) of SigmaPlot 11 (Systat Software, Inc.) was used to fit data to Michaelis-Menten equations and calculate the kinetic constants. The kcat/KM is derived from the individual numbers of kcat and KM and not an experimentally determined value.
For those enzymes marked with an asterisk in Table 7, at least 3 assays were performed with separate preparations of the enzyme. All other numbers are values from either one assay or are averages from 2 assays performed with the same enzyme sample.

For orientation: Km means the concentration of substrate that gives half-maximal velocity.

Each structure is given as a SMILES string.

`NC(=O)C1=CN([C@@H]2O[C@H](COP(=O)(O)OP(=O)(O)OC[C@H]3O[C@@H](n4cnc5c(N)ncnc54)[C@H](O)[C@@H]3O)[C@@H](O)[C@H]2O)C=CC1` [NADH, reduced nicotinamide adenine dinucleotide]: the Michaelis constant (Km) was found to be 20 µM.

Values taken from patent US8765433B2, “Alcohol dehydrogenases (ADH) useful for fermentive production of lower alkyl alcohols” (priority 2009, dated 2014).
